Read-outs that look alike come from different tables or passages of the source.
Experiments:
[1] = biological target: Protein arginine deiminase 4 (PAD4) (Homo sapiens, UniProt Q9UM07); assay: PAD4 ammonia release assay; assay type: biochemical; conditions: for IC50: PAD4 ammonia release assay, BAEE substrate, 60 min at RT, read-out: Average IC50 Abs; for relative potency of separated isomers in the PAD4 biochemical assay: SFC-separated stereoisomer pairs
How it was run: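 Ammonia release from BAEE substrate (2× mix 600 μM) was measured after 60 min at RT, following 15 min enzyme–compound preincubation (PAD4 2× 20 nM; pH 8.0 HEPES, 2 mM CaCl2, TCEP; 1.25% DMSO). Detection used OPA/DTT/EDTA for 120 min. % inhibition was taken versus reference-compound and DMSO controls; IC50 by four-parameter logistic fit.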

[2] = system: Citrullinated Histone H3 in dHL-60 cells (differentiated HL-60); assay: dHL-60 Cit-H3 ELISA assay; assay type: cell-based, human; conditions: read-out: Average IC50 Abs
How it was run: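 HL-60 cells differentiated 72 h with DMF, plated at 1×10^5/well, pretreated 30 min with compound (8-point 3-fold series, 0.2% DMSO), then stimulated 3 h at 37 °C with 25 μM A23187 plus S7 nuclease. Supernatant citrullinated H3 quantified by HRP ELISA at 450 nm; IC50 by four-parameter fit.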

[3] = stimulation with 25 μM A23187 for 3 h
[4] = Homo sapiens, HL-60, 3 h, stimulation with 25 μM A23187 for 3 h

Chain of Protein arginine deiminase 4 (PAD4) (Q9UM07 whole entry): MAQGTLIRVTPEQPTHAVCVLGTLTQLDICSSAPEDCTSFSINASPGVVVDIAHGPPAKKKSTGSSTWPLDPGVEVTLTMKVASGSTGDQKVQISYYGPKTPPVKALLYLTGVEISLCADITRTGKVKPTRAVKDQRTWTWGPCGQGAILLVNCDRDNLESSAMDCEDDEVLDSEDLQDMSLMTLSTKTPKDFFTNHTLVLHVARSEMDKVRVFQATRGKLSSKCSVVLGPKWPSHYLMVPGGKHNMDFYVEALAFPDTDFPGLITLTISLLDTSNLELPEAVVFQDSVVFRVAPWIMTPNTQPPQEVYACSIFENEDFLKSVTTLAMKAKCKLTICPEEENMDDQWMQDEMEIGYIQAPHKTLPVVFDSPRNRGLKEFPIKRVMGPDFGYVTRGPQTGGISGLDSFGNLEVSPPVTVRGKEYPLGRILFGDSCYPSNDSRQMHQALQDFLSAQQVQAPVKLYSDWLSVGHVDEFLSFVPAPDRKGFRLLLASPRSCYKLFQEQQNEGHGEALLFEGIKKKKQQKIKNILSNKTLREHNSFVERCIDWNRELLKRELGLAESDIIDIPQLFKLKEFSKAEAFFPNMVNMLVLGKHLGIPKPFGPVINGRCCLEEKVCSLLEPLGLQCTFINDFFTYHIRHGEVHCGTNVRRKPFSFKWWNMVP

Question: How did the IC50 [1] turn out when CCC1CN(CCCO)c2cccc3cc(-c4nc5cc(C(=O)N6C[C@H](N)C[C@@H](F)C6)cc(OC)c5n4C)n1c23 (single isomer, unassigned) [Example 82] was run?
Answer: The IC50 was at most 100 nM.

Question: And the “relative potency of separated isomers in the PAD4 biochemical assay” value [1]?
Answer: Its value is “more potent than Example 81”.

Question: And the IC50 [2, 3]?
Answer: Its IC50 is at most 100 nM.

Question: With CCC1CN(CCCO)c2cccc3cc(-c4nc5cc(C(=O)N6C[C@H]7CC[C@@H]6[C@@H]7N)cc(OC)c5n4C)n1c23 (single isomer, unassigned) [Example 86] as the compound, how does the IC50 [1] read?
Answer: Its IC50 is over 5000 nM.

Question: What about the IC50 [2, 3] of the same compound?
Answer: Its IC50 is 500 to 5000 nM.

Question: CCC1CN(CCCO)c2cccc3cc(-c4nc5cc(C(=O)N6C[C@H]7CC[C@@H]6[C@@H]7N)cc(OC)c5n4C)n1c23 (single isomer, unassigned) [Example 87] was tested. Which IC50 [1] did it give?
Answer: The IC50 was 100 to 500 nM.

Question: What about the “relative potency of separated isomers in the PAD4 biochemical assay” value [1] of the same compound?
Answer: Its value is “more potent than Example 86”.

Question: And the IC50 [2, 3]?
Answer: Its IC50 is at most 100 nM.

Question: With CCC1CN(CCCO)c2cccc3cc(-c4nc5cc(C(=O)N6C[C@H](N)C[C@@H](F)C6)cc(F)c5n4C)n1c23 (stereo partly drawn) [Example 75, ((3R,5R)-3-amino-5-fluoropiperidin-1-yl)(2-(3-ethyl-1-(3-hydroxypropyl)-2,3-dihydro-1H-pyrrolo[1,2,3-de]quinoxalin-5-yl)-7-fluoro-1-methyl-1H-benzo[d]imidazol-5-yl)methanone] as the compound, how does the IC50 [1] read?
Answer: The IC50 was 100 to 500 nM.

Question: And the IC50 [2, 4]?
Answer: Its IC50 is 100 to 500 nM.

Question: For C#CCn1c(-c2cc3cccc4c3n2C(CC)CN4CCCO)nc2cc(C(=O)N3C[C@H](N)C[C@@H](F)C3)cc(OC)c21 (stereo partly drawn) [Example 95, ((3R,5R)-3-amino-5-fluoropiperidin-1-yl)(2-(3-ethyl-1-(3-hydroxypropyl)-2,3-dihydro-1H-pyrrolo[1,2,3-de]quinoxalin-5-yl)-7-methoxy-1-(prop-2-yn-1-yl)-1H-benzo[d]imidazol-5-yl)methanone], which IC50 [1] is on record?
Answer: The IC50 was 100 to 500 nM.

Question: What about the IC50 [2, 4] of the same compound?
Answer: Its IC50 is 100 to 500 nM.

Question: For CCC1CN(CCCO)c2cccc3cc(-c4nc5cc(C(=O)N6C[C@H]7CC[C@@H]6[C@@H]7N)cc(F)c5n4CC)n1c23 (stereo partly drawn) [Example 96, ((1R,4R,7R)-7-amino-2-azabicyclo[2.2.1]heptan-2-yl)(1-ethyl-2-(3-ethyl-1-(3-hydroxypropyl)-2,3-dihydro-1H-pyrrolo[1,2,3-de]quinoxalin-5-yl)-7-fluoro-1H-benzo[d]imidazol-5-yl)methanone], which IC50 [1] is on record?
Answer: Its IC50 is 100 to 500 nM.

Question: And the IC50 ([2]; Homo sapiens, HL-60, stimulation with 25 μM A23187 for 3 h)?
Answer: Its IC50 is at most 100 nM.

Source: patent US20250136607A1 (REGOR PHARMACEUTICALS, INC., priority 2021, published 2025)
